Patent publication US20240058450A1, “BCL-XL Inhibitory Compounds Having Low Cell Permeability and Antibody Drug Conjugates Including the Same” (AbbVie Inc., priority 2014, published 2024)
pEC50, pKi: −log10 of the molar value. Where two headings read alike, the source gives them in different places.

Tests used:
Bcl-xL = Bcl-xL (Homo sapiens, UniProt Q07817); assay: Time Resolved-Fluorescence Resonance Energy Transfer (TR-FRET) binding assay, competition with probe F-Bak; conditions: for Ki: in the presence of 1% HS, read-out: Bcl-xL Binding Ki (nM, 1% HS); for pKi: without HS, read-out: Bcl-xL Binding Ki
Sequence of Bcl-xL (Q07817 whole entry): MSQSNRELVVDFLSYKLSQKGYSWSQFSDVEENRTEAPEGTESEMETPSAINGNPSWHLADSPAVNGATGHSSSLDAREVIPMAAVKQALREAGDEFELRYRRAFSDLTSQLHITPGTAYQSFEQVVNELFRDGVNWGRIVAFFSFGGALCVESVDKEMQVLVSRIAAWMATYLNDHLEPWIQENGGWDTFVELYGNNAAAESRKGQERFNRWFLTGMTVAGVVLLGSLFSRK
Summary of the method: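 TR-FRET binding assay run at room temperature for 2 h after mixing compound with Bcl-xL protein, F-Bak probe and Tb-labelled antibody. Test compounds diluted from a 2× 50 μM stock. Ki values derived via Wang's equation from 520/495 nm emission under 340 nm excitation, in the absence of serum or with 1% HS.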

[1] = test system: Molt-4 human acute lymphoblastic leukemia cells; assay: Molt-4 cell viability assay (CellTiter-Glo, 48 hours, 10% HS); assay type: cell-based; conditions: non-permeabilized cells
Summary of the method: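 Cells were seeded at 12,500 per well in medium with 10% human serum and exposed to a 3-fold compound dilution series from 10 μM to 0.0005 μM. After 48 h, viable cells were quantified by CellTiter-Glo luminescence. Each concentration was run in duplicate on at least 3 occasions.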

[2] = test system: permeabilized Bcl-xL dependent Molt-4 cells; assay: Cytochrome C release in selectively (digitonin) permeabilized Molt-4 cells; assay type: cell-based, human; conditions: 4 h treatment, read-out: Molt-4 Permeabilized Cyt C Release
Text: The permeabilization of the mitochondrial outer membrane to release proteins from the intermembrane space into the cytosol is a pivotal event in the process of apoptosis. Specifically, the release of cytochrome C triggers the formation of the apoptosome which, in turn, results in caspase activation and other events that will commit the cell to undergo programmed cell death (Goldstein el al., 2005, Cell Death and Differentiation 12:453). The process of mitochondrial outer membrane permeabilization (MOMP) is controlled by the Bcl-2 family members. It is promoted by the multidomain pro-apoptotic proteins Bax and Bak which, upon activation, oligomerize on the outer mitochondrial membrane and form pores to ultimately release cytochrome C. This action is antagonized by the antiapoptotic members, including Bcl-2 and Bcl-xL. Compounds that are capable of inhibiting Bcl-2 or Bcl-xL, for example, in cells that depend upon these proteins for survival, can cause activation of Bax and or Bak, MOMP, release of cytochrome C and the mentioned downstream steps in the apoptotic process. This process of cytochrome C release can be measured in cells via Western blot of both mitochrondrial and cytosolic fractions, and can be used a proxy measurement of apoptosis in cells.
As a means of detecting the ability of a Bcl-xL inhibitor with low cell-permeability to cause release of cytochrome C, the cells can be treated with an agent that causes selective pore formation in the plasma membrane, but not the mitochondrial membrane. Specifically, the cholesterol/phospholipid ratio is much higher in the plasma membrane than the mitochondrial membrane. […] This agent forms insoluble complexes with cholesterol leading to the segregation of cholesterol from its normal phospholipid binding sites. This action, in turn, leads to the formation of holes about 40-50 Å wide in the lipid bilayer. Once the plasma membrane is permeabilized, cytosolic components able to pass over digitonin-formed holes can be washed out, including the cytochrome C that was released from mitochondria to cytosol in the apoptotic cells ((Campos, 2006, Cytometry A 69(6):515-523)).
To determine if Bcl-xL inhibitors were inducing cell death through apoptosis, cytochrome C release was measured in Bcl-xL dependent Molt-4 cells following treatment Specifically, 1×10^6 cells were treated for 4 h (37° C., 5% CO2) with the test compounds in half-log dilutions starting at 3.0 μM and ending at 0.01 μM. Cells were then processed as described in Chen et al., 2011, Mol. Cancer Ther. 10:2340-2350 (the Bcl-2/Bcl-X(L)/Bcl-w inhibitor, navitoclax, enhances the activity of chemotherapeutic agents in vitro and in vivo.).

Compound	Ki (Bcl-xL)	pKi (Bcl-xL)	EC50 ([1]; Homo sapiens, MOLT-4, 48 h)	pEC50 ([2]; Homo sapiens, MOLT-4, 4 h)	EC50 [1]	pEC50 [2]
Cc1c(-c2ccc(N3CCc4cccc(C(=O)Nc5nc6ccccc6s5)c4C3)nc2C(=O)O)cnn1CC12CC3(C)CC(C)(C1)CC(OCCN(C)C(=O)[C@@H](N)CS(=O)(=O)O)(C3)C2 [Example 1.13, 6-[8-(1,3-benzothiazol-2-ylcarbamoyl)-3,4-dihydroisoquinolin-2 (1H)-yl]-3-{1-[(3,5-dimethyl-7-{2-[methyl(3-sulfo-L-alanyl)amino]ethoxy}tricyclo[3.3.1.1^3,7]dec-1-yl)methyl]-5-methyl-1H-pyrazol-4-yl}pyridine-2-carboxylic acid]	0.2 nM	> 12.00	257 nM	> 9.30	–	–
Cc1c(-c2ccc(N3CCc4cccc(C(=O)Nc5nc6ccccc6s5)c4C3)nc2C(=O)O)cnn1CC12CC3(C)CC(C)(C1)CC(OCCNCCCP(=O)(O)O)(C3)C2 [Example 1.14, 6-[8-(1,3-benzothiazol-2-ylcarbamoyl)-3,4-dihydroisoquinolin-2 (1H)-yl]-3-{1-[(3,5-dimethyl-7-{2-[(3-phosphonopropyl)amino]ethoxy)tricyclo[3.3.1.1^3,7]dec-1-yl)methyl]-5-methyl-1H-pyrazol-4-yl}pyridine-2-carboxylic acid]	0.18 nM	> 12.00	415 nM	> 9.30	–	–
Cc1c(-c2ccc(-c3ccc4c(c3)N(C(=O)Nc3nc5ccccc5s3)CCC4)nc2C(=O)O)cnn1CC12CC3(C)CC(C)(C1)CC(OCCNCCP(=O)(O)O)(C3)C2 [Example 1.20, 6-[1-(1,3-benzothiazol-2-ylcarbamoyl)-1,2,3,4-tetrahydroquinolin-7-yl]-3-{1-[(3,5-dimethyl-7-(2-[(2-phosphonoethyl)amino]ethoxy}tricyclo[3.3.1.1^3,7]dec-1-yl)methyl]-5-methyl-1H-pyrazol-4-yl}pyridine-2-carboxylic acid]	0.47 nM	> 12.00	774 nM	> 9.30	–	–
Cc1c(-c2ccc(N3CCc4cccc(C(=O)Nc5nc6cccnc6s5)c4C3)nc2C(=O)O)cnn1CC12CC3(C)CC(C)(C1)CC(OCCNCCS(=O)(=O)O)(C3)C2 [Example 1.22, 3-{1-[(3,5-dimethyl-7-{2-[(2-sulfoethyl)amino]ethoxy}tricyclo[3.3.1.1^3,7]dec-1-yl)methyl]-5-methyl-1H-pyrazol-4-yl}-6-[8-([1,3]thiazolo[5,4-b]pyridin-2-ylcarbamoyl)-3,4-dihydroisoquinolin-2 (1H)-yl]pyridine-2-carboxylic acid]	7.11 nM	11.22	> 10000 nM	> 9.30	–	–
Cc1c(-c2ccc(-c3ccc4c(c3)N(C(=O)Nc3nc5ccccc5s3)CCC4)nc2C(=O)O)cnn1CC12CC3(C)CC(C)(C1)CC(OCCNCCS(=O)(=O)O)(C3)C2 [Example 1.24, 6-[1-(1,3-benzothiazol-2-ylcarbamoyl)-1,2,3,4-tetrahydroquinolin-7-yl]-3-{1-[(3,5-dimethyl-7-{2-[(2-sulfoethyl)amino]ethoxy}tricyclo[3.3.1.1^3,7]dec-1-yl)methyl]-5-methyl-1H-pyrazol-4-yl}pyridine-2-carboxylic acid]	0.074 nM	> 12.00	390 nM	> 9.30	–	–
Cc1c(-c2ccc(N3CCc4cccc(C(=O)Nc5nc6ccccc6s5)c4C3)nc2C(=O)O)cnn1CC12CC3(C)CC(C)(C1)CC(OCCN(C)C(=O)[C@@H](N)CCCC[N+](C)(C)C)(C3)C2 [Example 1.29, N-[(5S)-5-amino-6-{[2-({3-[(4-{6-[8-(1,3-benzothiazol-2-ylcarbamoyl)-3,4-dihydroisoquinolin-2 (1H)-yl]-2-carboxypyridin-3-yl}-5-methyl-1H-pyrazol-1-yl)methyl]-5,7-dimethyltricyclo[3.3.1.1^3,7]dec-1-yl}oxy)ethyl](methyl)amino}-6-oxohexyl]-N,N-dimethylmethanaminium]	0.033 nM	11.05	–	–	935 nM	> 9.30

Now from value to compound, other results behind:

Ki (Bcl-xL)	pKi (Bcl-xL)	EC50 ([1]; Homo sapiens, MOLT-4, 48 h)	pEC50 ([2]; Homo sapiens, MOLT-4, 4 h)	Compound	EC50 [1]	pEC50 [2]
0.08 nM	> 12.00	389 nM	> 9.30	Cc1c(-c2ccc(N3CCc4cccc(C(=O)Nc5nc6ccccc6s5)c4C3)nc2C(=O)O)cnn1CC12CC3(C)CC(C)(C1)CC(OCCNCCP(=O)(O)O)(C3)C2 [Example 1.12, 6-[8-(1,3-benzothiazol-2-ylcarbamoyl)-3,4-dihydroisoquinolin-2 (1H)-yl]-3-{1-[(3,5-dimethyl-7-{2-[(2-phosphonoethyl)amino]ethoxy}tricyclo[3.3.1.1^3,7]dec-1-yl)methyl]-5-methyl-1H-pyrazol-4-yl}pyridine-2-carboxylic acid]	–	–
0.39 nM	11.52	663 nM	8.30 to 9.00	Cc1c(-c2ccc(N3CCc4cccc(C(=O)Nc5nc6ccccc6s5)c4C3)nc2C(=O)O)cnn1CC12CC3(C)CC(C)(C1)CC(OCCNC(=O)[C@@H](N)CS(=O)(=O)O)(C3)C2 [Example 1.15, 6-[8-(1,3-benzothiazol-2-ylcarbamoyl)-3,4-dihydroisoquinolin-2 (1H)-yl]-3-{1-[(3,5-dimethyl-7-{2-[(3-sulfo-L-alanyl)amino]ethoxy}tricyclo[3.3.1.1^3,7]dec-1-yl)methyl]-5-methyl-1H-pyrazol-4-yl}pyridine-2-carboxylic acid]	–	–
1.38 nM	> 12.00	–	8.30 to 9.00	Cc1c(-c2ccc(N3CCc4cccc(C(=O)Nc5nc6ccccc6s5)c4C3)nc2C(=O)O)cnn1CC12CC3(C)CC(C)(C1)CC(OCCN(CCOCCOCCN)Cc1ccc(CC4O[C@H](C(=O)O)[C@@H](O)[C@H](O)[C@H]4O)cc1)(C3)C2 (stereo partly drawn) [Example 1.18, 6-{4-[({2-[2-(2-aminoethoxy)ethoxy]ethyl}[2-({3-[(4-{6-[8-(1,3-benzothiazol-2-ylcarbamoyl)-3,4-dihydroisoquinolin-2 (1H)-yl]-2-carboxypyridin-3-yl}-5-methyl-1H-pyrazol-1-yl)methyl]-5,7-dimethyltricyclo[3.3.1.1^3,7]dec-1-yl}oxy)ethyl]amino)methyl]benzyl}-2,6-anhydro-L-gulonic acid]	3330 nM	> 9.30
0.083 nM	> 12.00	430 nM	> 9.30	Cc1c(-c2ccc(N3CCc4cccc(C(=O)Nc5nc6ccccc6s5)c4C3)nc2C(=O)O)cnn1CC12CC3(C)CC(C)(C1)CC(OCCNCCC(=O)O)(C3)C2 [Example 1.25, 6-[8-(1,3-benzothiazol-2-ylcarbamoyl)-3,4-dihydroisoquinolin-2 (1H)-yl]-3-{1-[(3-{2-[(2-carboxyethyl)amino]ethoxy}-5,7-dimethyltricyclo[3.3.1.1^3,7]dec-1-yl)methyl]-5-methyl-1H-pyrazol-4-yl)pyridine-2-carboxylic acid]	–	–
0.11 nM	> 12.00	2330 nM	> 9.30	Cc1c(-c2ccc(N3CCc4cccc(C(=O)Nc5nc6ccccc6s5)c4C3)nc2C(=O)O)cnn1CC12CC3(C)CC(C)(C1)CC(OCCN(CCCP(=O)(O)O)C1CCNCC1)(C3)C2 [Example 1.26, 6-[8-(1,3-benzothiazol-2-ylcarbamoyl)-3,4-dihydroisoquinolin-2 (1H)-yl]-3-{1-[(3,5-dimethyl-7-{2-[(3-phosphonopropyl)(piperidin-4-yl)amino]ethoxy}tricyclo[3.3.1.1^3,7]dec-1-yl)methyl]-5-methyl-1H-pyrazol-4-yl}pyridine-2-carboxylic acid]	–	–
0.28 nM	> 12.00	708 nM	> 9.30	Cc1c(-c2ccc(N3CCc4cccc(C(=O)Nc5nc6ccccc6s5)c4C3)nc2C(=O)O)cnn1CC12CC3(C)CC(C)(C1)CC(OCCNC(=O)[C@H](CC(=O)O)NCCC(=O)O)(C3)C2 [Example 1.32, 6-[8-(1,3-benzothiazol-2-ylcarbamoyl)-3,4-dihydroisoquinolin-2 (1H)-yl]-3-(1-{[3-(2-{[N-(2-carboxyethyl)-L-alpha-aspartyl]amino}ethoxy)-5,7-dimethyltricyclo[3.3.1.1^3,7]dec-1-yl]methyl}-5-methyl-1H-pyrazol-4-yl}pyridine-2-carboxylic acid]	–	–
